In brackets after ≈: the same amount, converted by molar mass. Read-outs that look alike come from different tables or passages of the source.
Columns and labels:
Assay in all cases: Minimum Inhibitory Concentration (MIC), agar dilution, standard strains
E. faecalis EFS004 = type: cell-based; details: for MIC: Enterococcus faecalis, read-out: Minimum Inhibitory Concentration, E. faecalis EFS004
Experimental: (§1) The effectiveness of the compound according to the present invention was determined by obtaining Minimum Inhibitory Concentration (MIC) of the compounds prepared by the above examples (Compounds I-1 to I-41) and vancomycin, which is the known compound having a potent activity against gram-positive strains, as the control drug against the standard strains. Specifically, Minimum Inhibitory Concentration was obtained by diluting the test compound according to a double dilution method, dispersing them in Mueller-Hinton agar medium, inoculating each of the test strain having 10^7 cfu (colony forming unit) per ml in an amount of 2 μl to the medium and then incubating them at 37° C. for 20 hours. From the result of Minimum Inhibitory Concentration test, it can be seen that the compound according to the present invention has a good activity against major pathogenic microorganisms, which cause hospital infection, including MRSA strains.

S. epidermidis R005 = type: cell-based; details: for MIC: Staphylococcus epidermidis, read-out: Minimum Inhibitory Concentration, S. epidermidis R005
Experimental: as §1

[1] = system: Staphylococcus aureus giorgio; type: cell-based; details: for MIC: Staphylococcus aureus, read-out: Minimum Inhibitory Concentration, Staphylococcus aureus giorgio
Experimental: as §1

S. aureus 77 = type: cell-based, Staphylococcus aureus; details: for MIC: read-out: Minimum Inhibitory Concentration, S. aureus 77
Experimental: as §1

S. aureus K311 = type: cell-based, Staphylococcus aureus; details: for MIC: Staphylococcus aureus, read-out: Minimum Inhibitory Concentration, S. aureus K311
Experimental: as §1

E. faecalis L239 = type: cell-based; details: Enterococcus faecalis, L239, 20 h, read-out: Minimum Inhibitory Concentration, E. faecalis L239
Experimental: as §1

S. aureus 241 = type: cell-based, Staphylococcus aureus; details: Staphylococcus aureus, 241, 20 h, read-out: Minimum Inhibitory Concentration, S. aureus 241
Experimental: as §1

[2] = EFS004, Table 2, Mueller-Hinton agar, 37° C., 20 hours
[3] = R005, Table 2, Mueller-Hinton agar, 37° C., 20 hours
[4] = Table 2, Mueller-Hinton agar, 37° C., 20 hours
[5] = Staphylococcus aureus, 77, Table 2, Mueller-Hinton agar, 37° C., 20 hours
[6] = K311, Table 2, Mueller-Hinton agar, 37° C., 20 hours

Compound | MIC (E. faecalis EFS004; [2]) [µg/mL] | MIC (S. epidermidis R005; [3]) [µg/mL] | MIC [1, 4] [µg/mL] | MIC (S. aureus 77; [5]) [µg/mL] | MIC (S. aureus K311; [6]) [µg/mL] | Minimum Inhibitory Concentration, E. faecalis EFS004 (E. faecalis EFS004; [4]) [µg/mL] | Minimum Inhibitory Concentration, S. epidermidis R005 (S. epidermidis R005; [4]) [µg/mL] | Minimum Inhibitory Concentration, Staphylococcus aureus giorgio [1, 4] [µg/mL] | Minimum Inhibitory Concentration, S. aureus 77 (S. aureus 77; [4]) [µg/mL] | Minimum Inhibitory Concentration, S. aureus K311 (S. aureus K311; [4]) [µg/mL] | also measured
Nc1cc(N)[n+](C/C=C/C2=C(C(=O)O)N3C(=O)[C@@H](NC(=O)CSc4cc(Cl)nc(Cl)c4)[C@H]3SC2)cn1 [Compound I-18] |  |  |  |  |  | 1 | 0.25 | 0.016 | 0.25 | 1 | 
CC[n+]1c(N)cc(N)nc1SC/C=C/C1=C(C(=O)O)N2C(=O)[C@@H](NC(=O)CSc3cc(Cl)nc(Cl)c3)[C@H]2SC1 [Compound I-16, 4,6-diamino-2-({(E)-3-[(6R,7R)-2-carboxy-7-({2-[(2,6-dichloro-4-pyridinyl)sulfanyl]acetyl}amino)-8-oxo-5-thia-1-azabicyclo[4.2.0]oct-2-en-3-yl]-2-propenyl}sulfanyl)-1-ethylpyrimidin-1-ium] |  |  |  |  |  | 0.5 | 0.13 | <0.008 | 0.13 | 0.5 | 
O=C(CSc1cc(Cl)nc(Cl)c1)N[C@@H]1C(=O)N2C(C(=O)O)=C(/C=C/CSc3ncnc4[nH]ncc34)CS[C@H]12 [Compound I-7, (6R,7R)-7-({2-[(2,6-dichloro-4-pyridinyl)sulfanyl]acetyl}amino)-8-oxo-3-[(E)-3-(1H-pyrazolo[3,4-d]pyrimidin-4-ylsulfanyl]-1-propenyl]-5-thia-1-azabicyclo[4.2.0]oct-2-ene-2-carboxylic acid] | 0.5 (≈ 0.819 µM) | 0.25 (≈ 0.409 µM) | < 0.008 | 0.25 (≈ 0.409 µM) | 0.5 (≈ 0.819 µM) |  |  |  |  |  | 
Cn1c(N)n[n+]2c(SC/C=C/C3=C(C(=O)O)N4C(=O)[C@@H](NC(=O)CSc5cc(Cl)nc(Cl)c5)[C@H]4SC3)nc(N)cc12 [Compound I-14, 2,7-diamino-5-({(E)-3-[(6R,7R)-2-carboxy-7-({2-[(2,6-dichloro-4-pyridinyl)sulfanyl]acetyl}amino)-8-oxo-5-thia-1-azabicyclo[4.2.0]oct-2-en-3-yl]-2-propenyl}sulfanyl)-1-methyl-1H-[1,2,4]triazolo[1,5-c]pyrimidin-4-ium] |  |  |  |  |  | 1 | 0.13 | <0.008 | 0.13 | 0.25 | 
Nc1nc(SC/C=C/C2=C(C(=O)O)N3C(=O)[C@@H](NC(=O)CSc4cc(Cl)nc(Cl)c4)[C@H]3SC2)c2c([n+]1N)CCC2 [Compound I-17, 1,2-diamino-4-({(E)-3-[(6R,7R)-2-carboxy-7-({2-[(2,6-dichloro-4-pyridinyl)sulfanyl]acetyl}amino)-8-oxo-5-thia-1-azabicyclo[4.2.0]oct-2-en-3-yl]-2-propenyl}sulfanyl)-6,7-dihydro-5H-cyclopenta[d]pyrimidin-1-ium] |  |  |  |  |  | 0.5 | 0.25 | <0.008 | 0.25 | 0.5 | 
CN[C@H](CC(C)C)C(=O)N[C@H]1C(=O)N[C@@H](CC(N)=O)C(=O)N[C@H]2C(=O)N[C@H]3C(=O)N[C@H](C(=O)N[C@H](C(=O)O)c4cc(O)cc(O)c4-c4cc3ccc4O)[C@H](O)c3ccc(c(Cl)c3)Oc3cc2cc(c3O[C@@H]2O[C@H](CO)[C@@H](O)[C@H](O)[C@H]2O[C@H]2C[C@](C)(N)[C@H](O)[C@H](C)O2)Oc2ccc(cc2Cl)[C@H]1O [Vancomycin, vancomycin, reference compound] |  |  |  |  |  |  | 1 | 1 | 1 |  | MIC (E. faecalis EFS004; EFS004, 20 h): 2 µg/mL (≈ 1.38 µM); MIC (E. faecalis L239): 2 µg/mL (≈ 1.38 µM); MIC (S. epidermidis R005; R005, 20 h): 1 µg/mL (≈ 0.69 µM); MIC ([1]; 20 h): 1 µg/mL (≈ 0.69 µM); MIC (S. aureus 241): 2 µg/mL (≈ 1.38 µM); MIC (S. aureus 77; Staphylococcus aureus, 77, 20 h): 1 µg/mL (≈ 0.69 µM); MIC (S. aureus K311; K311, 20 h): 2 µg/mL (≈ 1.38 µM)
Nc1cc(N)nc(SC/C=C/C2=C(C(=O)O)N3C(=O)[C@@H](NC(=O)CSc4cc(Cl)nc(Cl)c4)[C@H]3SC2)n1 [Compound I-8, (6R,7R)-3-{(E)-3-[(4,6-diamino-2-pyrimidinyl)sulfanyl]-1-propenyl}-7-({2-[(2,6-dichloro-4-pyridinyl)sulfanyl]acetyl}amino)-8-oxo-5-thia-1-azabicyclo[4.2.0]oct-2-ene-2-carboxylic acid] | 1 (≈ 1.67 µM) | 0.5 (≈ 0.833 µM) | 0.031 (≈ 0.0516 µM) | 0.25 (≈ 0.416 µM) | 0.5 (≈ 0.833 µM) |  |  |  |  |  | 

Further lines, with some results ahead:

MIC (E. faecalis EFS004; [2]) [µg/mL] | MIC (S. epidermidis R005; [3]) [µg/mL] | MIC [1, 4] [µg/mL] | MIC (S. aureus 77; [5]) [µg/mL] | MIC (S. aureus K311; [6]) [µg/mL] | Compound | Minimum Inhibitory Concentration, E. faecalis EFS004 (E. faecalis EFS004; [4]) [µg/mL] | Minimum Inhibitory Concentration, S. epidermidis R005 (S. epidermidis R005; [4]) [µg/mL] | Minimum Inhibitory Concentration, Staphylococcus aureus giorgio [1, 4] [µg/mL] | Minimum Inhibitory Concentration, S. aureus 77 (S. aureus 77; [4]) [µg/mL] | Minimum Inhibitory Concentration, S. aureus K311 (S. aureus K311; [4]) [µg/mL] | also measured
2 (≈ 3.33 µM) | 0.5 (≈ 0.833 µM) | 0.016 (≈ 0.0266 µM) | 0.25 (≈ 0.416 µM) | 0.5 (≈ 0.833 µM) | Nc1cc(SC/C=C/C2=C(C(=O)O)N3C(=O)[C@@H](NC(=O)CSc4cc(Cl)nc(Cl)c4)[C@H]3SC2)nc(N)n1 [Compound I-11, (6R,7R)-3-{(E)-3-[(2,6-diamino-4-pyrimidinyl)sulfanyl]-1-propenyl}-7-( {2-[(2,6-dichloro-4-pyridinyl)sulfanyl]acetyl}amino)-8-oxo-5-thia-1-azabicyclo[4.2.0]oct-2-ene-2-carboxylic acid] |  |  |  |  |  | 
1 (≈ 1.6 µM) | 0.5 (≈ 0.799 µM) | 0.031 (≈ 0.0496 µM) | 0.25 (≈ 0.4 µM) | 1 (≈ 1.6 µM) | Nc1nc(SC/C=C/C2=C(C(=O)O)N3C(=O)[C@@H](NC(=O)CSc4cc(Cl)nc(Cl)c4)[C@H]3SC2)nc2[nH]ncc12 [Compound I-9, (6R,7R)-3-{(E)-3-[(4-amino-1H-pyrazolo[3,4-d]pyrimidin-6-yl)sulfanyl]-1-propenyl}-7-({2-[(2,6-dichloro-4-pyridinyl)sulfanyl]acetyl}amino)-8-oxo-5-thia-1-azabicyclo[4.2.0]oct-2-ene-2-carboxylic acid] |  |  |  |  |  | 
1 (≈ 1.55 µM) | 0.5 (≈ 0.775 µM) | 0.031 (≈ 0.048 µM) | 0.5 (≈ 0.775 µM) | 0.5 (≈ 0.775 µM) | O=C(CSc1cc(Cl)nc(Cl)c1)N[C@@H]1C(=O)N2C(C(=O)O)=C(/C=C/CSc3nc(O)cc(NCCO)n3)CS[C@H]12 [Compound I-15, (6R,7R)-7-({2-[(2,6-dichloro-4-pyridinyl)sulfanyl]acetyl}amino)-3-[(E)-3-({4-hydroxy-6-[(2-hydroxyethyl)amino]-2-pyrimidinyl]sulfanyl}-1-propenyl]-8-oxo-5-thia-1-azabicyclo[4.2.0]oct-2-ene-2-carboxylic acid] |  |  |  |  |  | 
0.5 (≈ 0.776 µM) | 0.5 (≈ 0.776 µM) | 0.031 (≈ 0.0481 µM) | 0.5 (≈ 0.776 µM) | 1 (≈ 1.55 µM) | CCSc1nc(C)cc(SC/C=C/C2=C(C(=O)O)N3C(=O)[C@@H](NC(=O)CSc4cc(Cl)nc(Cl)c4)[C@H]3SC2)n1 [Compound I-12, (6R,7R)-7-({2-[(2,6-dichloro-4-pyridinyl)sulfanyl]acetyl}amino)-3-((E)-3-{[2-(ethylsulfanyl)-6-methyl-4-pyrimidinyl]sulfanyl}-1-propenyl)-8-oxo-5-thia-1-azabicyclo[4.2.0]oct-2-ene-2-carboxylic acid] |  |  |  |  |  | 
